Experimental data: ChEMBL document CHEMBL1201862, “PubChem BioAssay data set” (2004)
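Growth conditions: 96-well plates. Treatment: test compound, 48 hours, 5 concentrations. Analysis: linear interpolation between bracketing concentrations; unreached endpoints set to highest concentration. Abbreviation: GI50, concentration required for 50% inhibition of growth.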 The source made the active and inactive calls. Rule as the data show it: active = GI50 up to about 1.1 µM and inactive = higher.

Experiments:
Test in all cases: DTP human tumour cell line panel, 48 h
[1] = tested on: SK-MEL-28
[2] = tested on: TK-10
[3] = tested on: DU-145
[4] = tested on: HOP-62
[5] = tested on: RXF 393
[6] = tested on: PC-3
[7] = tested on: CAKI-1
[8] = tested on: UACC-62
[9] = tested on: HCT-15
[10] = tested on: NCI-H23
[11] = tested on: IGROV-1
[12] = tested on: SW-620
[13] = tested on: 786-0
[14] = tested on: A549
[15] = tested on: MDA-MB-231
[16] = tested on: Malme-3M
[17] = tested on: CCRF-CEM
[18] = tested on: M14
[19] = tested on: SK-MEL-5
[20] = tested on: T47D
[21] = tested on: COLO 205
[22] = tested on: OVCAR-8
[23] = tested on: SF-268
[24] = tested on: SF-295
[25] = tested on: HCC 2998
[26] = tested on: MCF7
[27] = tested on: SK-OV-3
[28] = tested on: RPMI-8226
[29] = tested on: MDA-N
[30] = tested on: EKVX
[31] = tested on: SNB-75
[32] = tested on: SR
[33] = tested on: MOLT-4
[34] = tested on: SN12C
[35] = tested on: KM12
[36] = tested on: NCI-H226
[37] = tested on: K562
[38] = tested on: Hs-578T
[39] = tested on: OVCAR-5
[40] = tested on: OVCAR-4
[41] = tested on: HL-60
[42] = tested on: HT-29
[43] = tested on: ACHN
[44] = tested on: UACC-257
[45] = tested on: NCI/ADR-RES
[46] = tested on: OVCAR-3
[47] = tested on: MDA-MB-435
[48] = tested on: NCI-H460
[49] = tested on: SNB-19
[50] = tested on: U-251
[51] = tested on: SK-MEL-2
[52] = tested on: HOP-92
[53] = tested on: UO-31
[54] = tested on: NCI-H522
[55] = tested on: HCT-116
[56] = tested on: SF-539
[57] = tested on: LOX IMVI

**Q.** Which results are given for `c1ccc(COC[C@H]2O[C@@H](c3ccccc3)C[C@@H](OCc3ccccc3)C2OCc2ccccc2)cc1` (stereo not given in full)?
**A.** GI50 [1]: > 10 µM (inactive); GI50 [2]: > 10 µM (inactive); GI50 [3]: > 10 µM (inactive); GI50 [4]: > 10 µM (inactive); GI50 [5]: > 10 µM (inactive); GI50 [6]: > 10 µM (inactive); GI50 [7]: > 10 µM (inactive); GI50 [8]: > 10 µM (inactive); GI50 [9]: > 10 µM; GI50 [10]: > 10 µM (inactive); GI50 [11]: > 10 µM (inactive); GI50 [12]: > 10 µM (inactive); GI50 [13]: > 10 µM (inactive); GI50 [14]: > 10 µM (inactive); GI50 [15]: > 10 µM (inactive); GI50 [16]: > 10 µM (inactive); GI50 [17]: > 10 µM (inactive); GI50 [18]: > 10 µM (inactive); GI50 [19]: > 10 µM (inactive); GI50 [20]: > 10 µM (inactive); GI50 [21]: > 10 µM (inactive); GI50 [22]: > 10 µM (inactive); GI50 [23]: > 10 µM (inactive); GI50 [24]: > 10 µM (inactive); GI50 [25]: > 10 µM (inactive); GI50 [26]: > 10 µM (inactive); GI50 [27]: > 10 µM (inactive); GI50 [28]: > 10 µM (inactive); GI50 [29]: > 10 µM (inactive); GI50 [30]: > 10 µM (inactive); GI50 [31]: > 10 µM (inactive); GI50 [32]: > 10 µM (inactive); GI50 [33]: > 10 µM (inactive); GI50 [34]: > 10 µM (inactive); GI50 [35]: > 10 µM (inactive)

**Q.** `COc1ccc(OC)c(SC(CC(=O)c2ccccc2)c2ccccc2)c1` (stereo not given) was tested. Which GI50 [36] did it give?
**A.** 14.3 µM (inactive)

**Q.** And the GI50 [1]?
**A.** 17.5 µM (inactive)

**Q.** What about the GI50 [2] of the same compound?
**A.** 17.2 µM (inactive)

**Q.** And the GI50 [3]?
**A.** 7.85 µM (inactive)

**Q.** What about the GI50 [37] of the same compound?
**A.** 4.91 µM (inactive)

**Q.** And the GI50 [4]?
**A.** 20.9 µM (inactive)

**Q.** What about the GI50 [38] of the same compound?
**A.** 28.4 µM (inactive)

**Q.** And the GI50 [5]?
**A.** 15.8 µM (inactive)

**Q.** And the GI50 [6]?
**A.** 14.8 µM (inactive)

**Q.** What about the GI50 [7] of the same compound?
**A.** 13.9 µM (inactive)

**Q.** And the GI50 [8]?
**A.** 15.6 µM (inactive)

**Q.** What about the GI50 [9] of the same compound?
**A.** 17.5 µM

**Q.** And the GI50 [39]?
**A.** 18.4 µM (inactive)

**Q.** What about the GI50 [10] of the same compound?
**A.** 18.6 µM (inactive)

**Q.** And the GI50 [11]?
**A.** 11 µM (inactive)

**Q.** And the GI50 [40]?
**A.** 61.4 µM (inactive)

**Q.** What about the GI50 [41] of the same compound?
**A.** > 100 µM (inactive)

**Q.** And the GI50 [42]?
**A.** 8.24 µM (inactive)

**Q.** What about the GI50 [12] of the same compound?
**A.** 3.73 µM (inactive)

**Q.** What about the GI50 [13] of the same compound?
**A.** 15.6 µM (inactive)

**Q.** And the GI50 [14]?
**A.** 27.9 µM (inactive)

**Q.** And the GI50 [15]?
**A.** 7.45 µM (inactive)

**Q.** And the GI50 [16]?
**A.** 19.8 µM (inactive)

**Q.** What about the GI50 [43] of the same compound?
**A.** 19.6 µM (inactive)

**Q.** What about the GI50 [17] of the same compound?
**A.** 5.08 µM (inactive)

**Q.** What about the GI50 [44] of the same compound?
**A.** 15.9 µM (inactive)

**Q.** What about the GI50 [18] of the same compound?
**A.** 16.7 µM (inactive)

**Q.** What about the GI50 [19] of the same compound?
**A.** 13.8 µM (inactive)

**Q.** And the GI50 [20]?
**A.** 10.1 µM (inactive)

**Q.** And the GI50 [45]?
**A.** 17.7 µM (inactive)

**Q.** And the GI50 [21]?
**A.** 19.5 µM (inactive)

**Q.** And the GI50 [22]?
**A.** 11.3 µM (inactive)

**Q.** What about the GI50 [23] of the same compound?
**A.** 19.1 µM (inactive)

**Q.** And the GI50 [46]?
**A.** 4.69 µM (inactive)

**Q.** What about the GI50 [47] of the same compound?
**A.** 13 µM (inactive)

**Q.** And the GI50 [24]?
**A.** 15.2 µM (inactive)

**Q.** What about the GI50 [48] of the same compound?
**A.** 37.1 µM (inactive)

**Q.** And the GI50 [25]?
**A.** 17.5 µM (inactive)

**Q.** And the GI50 [49]?
**A.** 14.2 µM (inactive)

**Q.** What about the GI50 [26] of the same compound?
**A.** 3.14 µM (inactive)

**Q.** And the GI50 [27]?
**A.** 20 µM (inactive)

**Q.** What about the GI50 [30] of the same compound?
**A.** 15.2 µM (inactive)

**Q.** What about the GI50 [31] of the same compound?
**A.** 18.4 µM (inactive)

**Q.** What about the GI50 [32] of the same compound?
**A.** 7.6 µM (inactive)

**Q.** And the GI50 [50]?
**A.** 10.2 µM (inactive)

**Q.** What about the GI50 [33] of the same compound?
**A.** 0.877 µM (active)

**Q.** What about the GI50 [51] of the same compound?
**A.** 20.1 µM (inactive)

**Q.** And the GI50 [52]?
**A.** 33.7 µM (inactive)

**Q.** And the GI50 [53]?
**A.** 12.1 µM (inactive)

**Q.** And the GI50 [34]?
**A.** 17.9 µM (inactive)

**Q.** And the GI50 [54]?
**A.** 14.6 µM (inactive)

**Q.** What about the GI50 [55] of the same compound?
**A.** 3.66 µM (inactive)

**Q.** And the GI50 [35]?
**A.** 4.06 µM (inactive)

**Q.** And the GI50 [56]?
**A.** 4.32 µM (inactive)

**Q.** With `Cc1cccc(C(O)c2ccncc2)c1O` (stereo not given) as the compound, how does the GI50 [36] read?
**A.** > 100 µM (inactive)

**Q.** And the GI50 [3]?
**A.** > 100 µM (inactive)

**Q.** And the GI50 [37]?
**A.** > 100 µM (inactive)

**Q.** And the GI50 [4]?
**A.** > 100 µM (inactive)

**Q.** What about the GI50 [38] of the same compound?
**A.** > 100 µM (inactive)

**Q.** What about the GI50 [5] of the same compound?
**A.** 91.6 µM (inactive)

**Q.** And the GI50 [6]?
**A.** > 100 µM (inactive)

**Q.** What about the GI50 [8] of the same compound?
**A.** 25.8 µM (inactive)

**Q.** What about the GI50 [9] of the same compound?
**A.** > 100 µM

**Q.** What about the GI50 [10] of the same compound?
**A.** > 100 µM (inactive)

**Q.** What about the GI50 [41] of the same compound?
**A.** > 100 µM (inactive)

**Q.** What about the GI50 [14] of the same compound?
**A.** > 100 µM (inactive)

**Q.** What about the GI50 [43] of the same compound?
**A.** > 100 µM (inactive)

**Q.** And the GI50 [17]?
**A.** > 100 µM (inactive)

**Q.** And the GI50 [44]?
**A.** > 100 µM (inactive)

**Q.** What about the GI50 [18] of the same compound?
**A.** > 100 µM (inactive)

**Q.** What about the GI50 [19] of the same compound?
**A.** > 100 µM (inactive)

**Q.** And the GI50 [20]?
**A.** 12.6 µM (inactive)

**Q.** And the GI50 [45]?
**A.** > 100 µM (inactive)

**Q.** What about the GI50 [22] of the same compound?
**A.** > 100 µM (inactive)

**Q.** And the GI50 [23]?
**A.** > 100 µM (inactive)

**Q.** What about the GI50 [46] of the same compound?
**A.** > 100 µM (inactive)

**Q.** And the GI50 [57]?
**A.** > 100 µM (inactive)

**Q.** What about the GI50 [24] of the same compound?
**A.** > 100 µM (inactive)

**Q.** And the GI50 [25]?
**A.** > 100 µM (inactive)

**Q.** And the GI50 [49]?
**A.** > 100 µM (inactive)

**Q.** And the GI50 [30]?
**A.** > 100 µM (inactive)

**Q.** And the GI50 [31]?
**A.** 76.6 µM (inactive)

**Q.** What about the GI50 [50] of the same compound?
**A.** > 100 µM (inactive)

**Q.** And the GI50 [33]?
**A.** > 100 µM (inactive)

**Q.** And the GI50 [53]?
**A.** > 100 µM (inactive)

**Q.** And the GI50 [34]?
**A.** > 100 µM (inactive)

**Q.** What about the GI50 [54] of the same compound?
**A.** > 100 µM (inactive)

**Q.** And the GI50 [55]?
**A.** > 100 µM (inactive)

**Q.** What about the GI50 [35] of the same compound?
**A.** > 100 µM (inactive)

**Q.** And the GI50 [56]?
**A.** > 100 µM (inactive)
